“Also recorded” adds a separate entry of the source. Where two headings read alike, the source gives them in different places. A value given as a limit tells only on which side of the number the result lay.

The results in this text go back to PMC4437985, “Inhibition of a Putative Dihydropyrimidinase from Pseudomonas aeruginosa PAO1 by Flavonoids and Substrates of Cyclic Amidohydrolases” (PLoS ONE, 2015).

Assay [1] concerns the target T1, dihydropyrimidinase from P. aeruginosa PAO1 (Pseudomonas aeruginosa, UniProt Q9I676). In words: Substrate specificity / Michaelis-Menten kinetics of dihydropyrimidinase. It counts as biochemical. The conditions noted are these: for Fold: V max/K m relative to dihydrouracil; for K m / V max / V max/K m: compound as substrate. As to the method: (§1) A rapid spectrophotometric assay was used to determine the enzymatic activity according to a previously described protocol for hydantoinase, allantoinase, dihydroorotase, and imidase. Dihydrouracil, 5-propyl-hydantoin, and phthalimide were used as substrates. Unless explicitly stated otherwise, dihydrouracil (2 mM) was used as the substrate in the standard assay of dihydropyrimidinase. Briefly, the decrease in absorbancy at 230, 248, and 298 nm was measured upon hydrolysis of dihydrouracil, 5-propyl-hydantoin, and phthalimide as the substrate at 25°C, respectively. To start the reaction, the purified dihydropyrimidinase (10–70 μg) was added to a 2 mL solution containing the substrate and 100 mM Tris–HCl (pH 8.0). Substrate hydrolysis was monitored with a UV/vis spectrophotometer (Hitachi U 3300, Hitachi High-Technologies, Tokyo, Japan). The extinction coefficient of each substrate was determined experimentally by direct measurement with a spectrophotometer. The extinction coefficients of dihydrouracil, 5-propyl-hydantoin, and phthalimide were 0.683 mM^-1cm^-1 at 230 nm, 0.0538 mM^-1cm^-1 at 248 nm, and 3.12 mM^-1cm^-1 at 298 nm, respectively. The initial rates of change were a function of enzyme concentration within the absorbance range of 0.01–0.18 min^-1. A unit of activity was defined as the amount of enzyme catalyzing the hydrolysis of 1 μmol substrate/min, and the specific activity was expressed in terms of units of activity per milligram of enzyme. The kinetic parameters K m and V max were determined from a non-linear plot by fitting the hydrolyzing rate from individual experiments to the Michaelis–Menten equation (Enzyme Kinetics module of Sigma-Plot; Systat Software, Chicago, IL, USA).

Assay [2] has as its target T1, dihydropyrimidinase from P. aeruginosa PAO1. Format: biochemical.
The target is the same in assay [3]. In words: Spectrophotometric enzyme assay: inhibition of dihydropyrimidinase. Format: biochemical. The conditions noted are these: for Inhibitory effect on dihydropyrimidinase activity: 5-propyl-hydantoin or dihydrouracil as substrate. As to the method:
as §1

For assay [4], the target named is N337A mutant of P. aeruginosa dihydropyrimidinase (Pseudomonas aeruginosa, UniProt Q9I676, N337A). The experiment in a line: Fluorescence quenching of the N337A mutant. Format: binding, Pseudomonas aeruginosa PAO1. The conditions noted are these: for Red shift in λmax: N337A mutant, from 333.5 nm. As to the method: The dihydropyrimidinase mutants (H59A, H61A, K150A, Y155A, H183A, H239A, S289A, D316A, and N337A) were generated according to the manufacturer’s protocol (Stratagene, LaJolla, CA). The presence of the mutation was verified by DNA sequencing in each construct.
(§2) The dissociation constants (K d) of dihydropyrimidinase was determined using the fluorescence quenching method as previously described for allantoinase, dihydroorotase, and DnaB helicase. An aliquot of each compound was added into the solution containing dihydropyrimidinase (0.8 μM), 50 mM HEPES at pH 7.0. The decrease in intrinsic fluorescence of protein was measured at 334.5 nm upon excitation at 279 nm and 25°C with a spectrofluorimeter (Hitachi F-2700; Hitachi High-Technologies, Tokyo, Japan). At least seven data points were used to calculate each K d. Each data point was an average of 2–3 determinants, and the difference of the determinants was within 10%. The K d was obtained by the equation: ΔF = ΔFmax-K d(ΔF/[compound]) (Enzyme Kinetics module of Sigma-Plot; Systat Software, Chicago, IL, USA).

Assay [5] has as its target P. aeruginosa dihydropyrimidinase (Pseudomonas aeruginosa, UniProt Q9I676). In words: Fluorescence quenching of wild-type dihydropyrimidinase. Format: binding. The conditions noted are these: for Quenching of intrinsic fluorescence / Red shift in emission wavelength: wild-type enzyme; for Quenching of intrinsic fluorescence: 50 μM compound; for Red shift in emission wavelength: λmax from 333.5 nm. As to the method: as §2

Where [6] appears, read: metal ion 1 mM added to reaction mixture, enzyme purified without metal supplement, dihydrouracil substrate.
[7] abbreviates: specific activity relative to no metal added, metal ion 1 mM.
Setting [8] is: 40 μM dihydromyricetin, dihydrouracil substrate.
Where [9] appears, read: IC50, 5-propyl-hydantoin as substrate.
The mark [10] stands for this setting: IC50, dihydrouracil as substrate.
Setting [11] is: substrate and inhibitor analogs of other cyclic amidohydrolases, read-out: IC50.

N337A mutant of P. aeruginosa dihydropyrimidinase, sequence (Q9I676 whole entry N337A): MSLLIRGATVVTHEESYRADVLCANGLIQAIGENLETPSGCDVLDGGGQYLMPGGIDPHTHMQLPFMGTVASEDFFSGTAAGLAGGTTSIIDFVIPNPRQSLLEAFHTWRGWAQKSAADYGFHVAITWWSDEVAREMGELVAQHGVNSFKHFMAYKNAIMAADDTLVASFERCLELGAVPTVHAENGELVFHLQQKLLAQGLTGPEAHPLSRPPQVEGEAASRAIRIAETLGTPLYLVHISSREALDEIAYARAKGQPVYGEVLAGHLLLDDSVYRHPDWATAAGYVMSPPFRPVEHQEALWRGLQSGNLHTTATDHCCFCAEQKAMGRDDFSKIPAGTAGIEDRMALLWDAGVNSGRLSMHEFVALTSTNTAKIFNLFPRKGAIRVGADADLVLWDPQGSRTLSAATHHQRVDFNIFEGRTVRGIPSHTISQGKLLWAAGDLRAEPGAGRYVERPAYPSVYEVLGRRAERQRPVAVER
T1 sequence (Q9I676 whole entry): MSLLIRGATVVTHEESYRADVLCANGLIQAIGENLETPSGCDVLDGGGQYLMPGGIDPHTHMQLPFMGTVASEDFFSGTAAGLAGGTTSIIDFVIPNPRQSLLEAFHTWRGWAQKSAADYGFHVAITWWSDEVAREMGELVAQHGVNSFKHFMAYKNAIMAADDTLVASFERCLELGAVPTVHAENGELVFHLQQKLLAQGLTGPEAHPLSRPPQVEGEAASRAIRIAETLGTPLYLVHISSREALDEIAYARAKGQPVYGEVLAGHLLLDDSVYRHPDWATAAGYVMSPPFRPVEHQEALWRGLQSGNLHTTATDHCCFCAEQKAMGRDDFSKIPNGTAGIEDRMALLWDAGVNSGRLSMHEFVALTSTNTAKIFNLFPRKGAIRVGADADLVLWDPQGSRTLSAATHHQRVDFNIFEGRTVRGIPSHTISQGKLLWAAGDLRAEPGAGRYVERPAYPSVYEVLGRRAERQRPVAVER
P. aeruginosa dihydropyrimidinase, sequence (Q9I676 whole entry): as above

On to `O=C1NC(=O)c2ccccc21` [phthalimide], for which, in assay [1], the “Catalytic efficiency toward dihydrouracil higher than toward this substrate” value is listed as “fourfold”, the Fold amounted to 0.25, the K m stood at 1.0 ± 0.3 mM and the V max is 2.7 ± 0.6 µmol/mg/min. Further, the “V max/K m” value in assay [1] stood at 2.7.
For `[Cl][Cd][Cl]` [CdCl2], the “Effect of metal addition on dihydropyrimidinase activity” value (from here on “Effect of metal addition”) in assay [2] (1 mM added to reaction mixture) is reported as “not useful”. Also, the Specific activity in assay [2] (setting [6]) was 0.74 ± 0.04 µmol/mg/min. Further, the Fold in assay [2] (setting [7]) was 0.9.
Regarding `[Ca+2].[Cl-].[Cl-]` [CaCl2], the “Effect of metal addition” value in assay [2] (1 mM added to reaction mixture) was “not useful”. In addition, in assay [2] (setting [6]), the Specific activity worked out at 0.82 ± 0.05 µmol/mg/min. Further, the Fold in assay [2] (setting [7]) is given as 1.0.
For the molecule `[Cl][Ni][Cl]` [NiCl2], in assay [2] (1 mM added to reaction mixture), the “Effect of metal addition” value is reported as “not useful”. Besides, the Specific activity in assay [2] (setting [6]) is 0.91 ± 0.06 µmol/mg/min. The same molecule had a Fold in assay [2] (setting [7]) of 1.1.
In general, IC50 refers to the concentration at which inhibition is half-maximal. Turning to `O=c1c(O)c(-c2ccc(O)cc2)oc2cc(O)cc(O)c12` [kaempferol], the “Inhibitory effect” value in assay [3] (5-propyl-hydantoin as substrate) is recorded as “only slightly inhibited”; in assay [3] (dihydrouracil as substrate), “significant”. For the same molecule, in assay [3] (dihydrouracil as substrate, read-out: IC50), the 50% inhibitory concentration (IC50) is 50 ± 2 µM.
One may read the Kd as the equilibrium constant for the complex coming apart. Read a low Kd as tighter binding. `O=C1c2c(O)cc(O)cc2O[C@H](c2cc(O)c(O)c(O)c2)[C@H]1O` [dihydromyricetin]: in assay [4], the Kd was determined as 24.1 ± 1.7 µM and the “Red shift in λmax” value was ~ 23.5 nm. Further, in assay [5], the Kd is 22.6 µM, the “Quenching of intrinsic fluorescence” value is on record as 89.1% and the “Red shift in emission wavelength” value is reported as ~ 25 nm. In addition, in assay [3], the “Inhibition stronger than the substrate analogs” value is > 3 orders of magnitude and the “Inhibitory effect on dihydropyrimidinase activity” value is on record as “significant inhibitory effect”. Further, in assay [3] (setting [8]), the “K m in the presence of inhibitor” value is reported as 1.6 ± 0.2 mM and the “V max in the presence of inhibitor” value was found to be 5.4 ± 0.4 µmol/mg/min. Also, the “Type of inhibition (Lineweaver-Burk plot)” value in assay [3] (40 μM inhibitor, different concentrations of dihydrouracil) was “competitive inhibitor”. For the same molecule, in assay [3] (setting [9]), the concentration for half-maximal inhibition (IC50) turned out to be 40 µM. The molecule further displayed an IC50 in assay [3] (setting [10]) of 48 µM.
Consider `O=C(O)c1cc(=O)[nH]c(=O)[nH]1` [orotic acid], for which, in assay [3], the “IC50 range” value is recorded as “within the millimolar range” and the “Inhibitory effect on dihydropyrimidinase activity” value was “slightly inhibit”.
`[Cl-].[Cl-].[Co+2]` [CoCl2]: in assay [2], the “Effect of metal addition” value is listed as “activated”, the Fold is given as 7.1, the Specific activity was determined as 5.80 ± 0.16 µmol/mg/min and the “Specific activity toward dihydrouracil” value was 5.9 ± 0.4 µmol/mg/min.
Turning to `CC(=O)NO` [acetohydroxamate], in assay [3], the “IC50 range” value was “within the millimolar range” and the “Inhibitory effect on dihydropyrimidinase activity” value is recorded as “only slightly inhibit”.
For the molecule `O=C1CCNC(=O)N1` [dihydrouracil], in assay [1], the Fold is 1.0, the K m is 0.7 ± 0.1 mM, the V max was determined as 7.6 ± 0.4 µmol/mg/min and the “V max/K m” value is given as 10.9.
Turning to `O=C1CC(C(=O)O)NC(=O)N1` (centres unmarked) [dihydroorotate], in assay [3], the “IC50 range” value is given as “within the millimolar range” and the “Inhibitory effect on dihydropyrimidinase activity” value is listed as “slightly inhibit; also recorded: only slightly inhibited”. Further, the IC50 in assay [3] (setting [11]) is roughly 30000 µM. Also, in assay [1], the K m result is on record as “Not hydrolyzed” and the V max entry is listed as “Not hydrolyzed”.
As to `O=c1c(O)c(-c2cc(O)c(O)c(O)c2)oc2cc(O)cc(O)c12` [myricetin], in assay [4], the “Red shift in λmax” value was ~ 7.5 nm. Also, in assay [5], the Kd came to 28.8 ± 2.2 µM, the “Quenching of intrinsic fluorescence” value was 56.2% and the “Red shift in emission wavelength” value is on record as ~ 7 nm. For the same molecule, the “Inhibitory effect on dihydropyrimidinase activity” value in assay [3] is “strongly inhibit”. The molecule further had an IC50 in assay [3] (setting [9]) of 63 ± 3 µM. In assay [3] (setting [10]), this molecule came in with an IC50 of 83 ± 3 µM. In addition, in assay [3] (dihydrouracil as substrate), the “Inhibitory effect” value is listed as “significant”.
Consider `[Cl-].[Cl-].[Zn+2]` [ZnCl2], for which the “Effect of metal addition” value in assay [2] (1 mM added to reaction mixture) is given as “activated”. The Specific activity in assay [2] (setting [6]) was found to be 2.90 ± 0.10 µmol/mg/min. Further, the Fold in assay [2] (setting [7]) is reported as 3.5.
On to `O=C(O)CC1NC(=O)NC1=O` (centres unmarked) [5-hydantoin acetic acid], for which, in assay [3], the “IC50 range” value was “within the millimolar range” and the “Inhibitory effect on dihydropyrimidinase activity” value is reported as “only slightly inhibit”. Further, in assay [3] (setting [11]), the IC50 is roughly 50000 µM.
`NC(=O)NC1NC(=O)NC1=O` (centres unmarked) [allantoin]: in assay [3], the “IC50 range” value was “within the millimolar range” and the “Inhibitory effect on dihydropyrimidinase activity” value was “slightly inhibit; also recorded: only slightly inhibited”. Moreover, in assay [1], the K m result is on record as “Not hydrolyzed” and the V max entry was “Not hydrolyzed”.
As for `CCCC1NC(=O)NC1=O` (centres unmarked) [5-propyl-hydantoin], in assay [1], the “Catalytic efficiency toward dihydrouracil higher than toward this substrate” value is 100 fold, the Fold is on record as 0.01, the K m worked out at 8.1 ± 1.5 mM and the V max was 1.2 ± 0.1 µmol/mg/min. Also, the “V max/K m” value in assay [1] turned out to be 0.15.
Regarding `[Cl-].[Cl-].[Mg+2]` [MgCl2], the “Effect of metal addition” value in assay [2] (1 mM added to reaction mixture) is “not useful”. Also, the Specific activity in assay [2] (setting [6]) worked out at 0.82 ± 0.05 µmol/mg/min. The molecule further registered a Fold in assay [2] (setting [7]) of 1.0.
Turning to `[Cl][Mn][Cl]` [MnCl2], in assay [2] (1 mM added to reaction mixture), the “Effect of metal addition” value was “activated”. The Specific activity in assay [2] (setting [6]) amounted to 1.72 ± 0.09 µmol/mg/min. The Fold in assay [2] (setting [7]) worked out at 2.1.
`O=c1c(O)c(-c2ccc(O)c(O)c2)oc2cc(O)cc(O)c12` [quercetin]: the “Inhibitory effect on dihydropyrimidinase activity” value in assay [3] is given as “insignificant”.
As for myricitrin, the “Inhibitory effect on dihydropyrimidinase activity” value in assay [3] is listed as “No effect”.
In the case of `Nc1nc[nH]n1` [3-amino-1,2,4-triazole], in assay [3], the “Concentration that affected enzyme activity” value lay in the range of 100 to 750 mM, the “IC50 range” value is “within the millimolar range” and the “Inhibitory effect on dihydropyrimidinase activity” value is listed as “slightly inhibit”.
